From PubChem BioAssay (NCI) come the findings set out here.

Where “and” joins values, the source holds several entries; their conditions need not be identical. Identical values can stand only once.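 Assay format: 96-well plates, 48-hour exposure. GI50 = concentration required for 50% inhibition of growth. TGI denotes the concentration required for complete inhibition of growth.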

Some test systems named below: ACHN renal; DU-145 prostate; HCT-15 colon; LOX IMVI melanoma; MDA-MB-231 breast; SK-MEL-28 melanoma; SK-MEL-5 melanoma; UACC-62 melanoma.
Experiment in all cases: DTP human tumour cell line panel, 48 h

For `CC[C@H](Nc1ncnc2nc[nH]c12)c1oc2ccccc2c(=O)c1-c1cccc(F)c1`, the GI50 in the assay with ACHN renal was 21.6 µM; in the assay on DU-145 prostate, 26.9 µM; in the assay on HCT-15 colon, 26.9 µM; in the assay with LOX IMVI melanoma it was 26.3 µM; in the assay with MDA-MB-231 breast, 16.6 µM; in the assay with SK-MEL-28 melanoma it was 22.6 µM. Moreover, the GI50 in the assay on SK-MEL-5 melanoma was 14 µM; in the assay with UACC-62 melanoma it was 10.5 µM. Moreover, the TGI with ACHN renal is above 100 µM; with DU-145 prostate, above 100 µM; in the assay on HCT-15 colon, above 100 µM; in the assay on LOX IMVI melanoma it was above 100 µM; in the assay on MDA-MB-231 breast, 50.3 µM; with SK-MEL-28 melanoma, above 100 µM. The TGI in the assay on SK-MEL-5 melanoma is 28.2 µM; in the assay with UACC-62 melanoma it was 69 µM.
As to `CN(C)CCSC1=Nc2ccc(Cl)cc2C(c2ccccc2Cl)=NC1`, the GI50 in the assay on ACHN renal is 14 µM and > 100 µM; with DU-145 prostate it was 14.4 µM and 60.2 µM; in the assay with HCT-15 colon it was 12 µM and 37.8 µM; in the assay on LOX IMVI melanoma, 15.6 µM and 69.7 µM; in the assay with MDA-MB-231 breast, 10.7 µM and > 100 µM; in the assay with SK-MEL-28 melanoma it was 19.4 µM and > 100 µM. Moreover, the GI50 with SK-MEL-5 melanoma is 15 µM and 43.3 µM. For the same compound, the TGI with ACHN renal was 26.9 µM and > 100 µM; with DU-145 prostate it was 30.5 µM and > 100 µM; with HCT-15 colon, 25.2 µM and > 100 µM; in the assay with LOX IMVI melanoma, 30.9 µM and > 100 µM; with MDA-MB-231 breast, 22.8 µM and > 100 µM; with SK-MEL-28 melanoma, 34.1 µM and > 100 µM. The TGI was 28.7 µM and > 100 µM with SK-MEL-5 melanoma; 19.1 µM and > 100 µM with UACC-62 melanoma.
For the compound `Cc1cc(I)cc(CN(C)CCCN2CCCCC2)c1O`, the GI50 in the assay with ACHN renal was 17.3 µM; with DU-145 prostate, 16.7 µM; in the assay with HCT-15 colon, 10.3 µM; in the assay with LOX IMVI melanoma it was 13.5 µM; in the assay on MDA-MB-231 breast, 18.4 µM; in the assay on SK-MEL-28 melanoma it was 15.9 µM. In addition, the values for the GI50 in the assay with SK-MEL-5 melanoma and in the assay with UACC-62 melanoma were 8.5 µM and 14.2 µM, respectively. For the same compound, the TGI in the assay on ACHN renal is 37.3 µM; in the assay on DU-145 prostate it was 33.8 µM; in the assay on HCT-15 colon, 30.7 µM; in the assay on LOX IMVI melanoma, 28.5 µM; in the assay with MDA-MB-231 breast, 48.6 µM; with SK-MEL-28 melanoma, 31.7 µM. Further, the total growth inhibition concentration (TGI) with SK-MEL-5 melanoma is 20.7 µM; in the assay with UACC-62 melanoma, 41.6 µM.
Consider `COc1cc(NCc2ccc3oc(=O)c(-c4ccccc4)nc3c2)cc(OC)c1OC`, for which the TGI with ACHN renal, in the assay on DU-145 prostate, with HCT-15 colon, in the assay with LOX IMVI melanoma, in the assay with MDA-MB-231 breast and in the assay on SK-MEL-28 melanoma was above 10 µM in each case. The TGI with SK-MEL-5 melanoma and with UACC-62 melanoma was above 10 µM in each case.
Consider `CN(C(=O)c1ccc(C(F)(F)F)cc1)c1ccc(Oc2ccc3c(c2)cc(C(=O)N2CCN(Cc4ccc(OC(F)F)cc4)CC2)n3C)nc1`, for which the GI50 in the assay on ACHN renal was above 100 µM; in the assay with DU-145 prostate, above 100 µM; in the assay with HCT-15 colon it was above 100 µM; with LOX IMVI melanoma, 0.882 µM; in the assay with MDA-MB-231 breast, above 80.2 µM; in the assay with SK-MEL-28 melanoma, 63.2 µM. In addition, the values for the GI50 in the assay on SK-MEL-5 melanoma and with UACC-62 melanoma were below 0.0213 µM and 3.96 µM, respectively. The concentration for total growth inhibition (TGI) in the assay on ACHN renal, in the assay on DU-145 prostate, in the assay on HCT-15 colon, with LOX IMVI melanoma, with MDA-MB-231 breast and in the assay with SK-MEL-28 melanoma was above 100 µM each time. Further, the TGI is 4.82 µM in the assay with SK-MEL-5 melanoma and above 100 µM in the assay on UACC-62 melanoma.
As to `COc1ccc(/C=C(/C#N)n2nnc3cccc(F)c32)cc1`, the GI50 was 1.31 µM in the assay with ACHN renal; 1.36 µM in the assay with DU-145 prostate; 0.401 µM in the assay with HCT-15 colon; 0.78 µM in the assay on LOX IMVI melanoma; 1.37 µM in the assay on MDA-MB-231 breast; 1.92 µM with SK-MEL-28 melanoma. The results for the GI50 in the assay on SK-MEL-5 melanoma and in the assay on UACC-62 melanoma were 0.877 µM and 0.516 µM, respectively. Also, the TGI in the assay with ACHN renal was above 100 µM; with DU-145 prostate, 4.67 µM; in the assay on HCT-15 colon it was above 100 µM; with LOX IMVI melanoma, above 100 µM; in the assay with MDA-MB-231 breast it was 3.84 µM; with SK-MEL-28 melanoma, above 100 µM. The results for the TGI in the assay with SK-MEL-5 melanoma and in the assay on UACC-62 melanoma were 5.46 µM and 29.9 µM, respectively.
For `CCN(CC)c1ccc(-c2cc(-c3cc(OC)c(OC)c(OC)c3)nc(N3CCOCC3)c2C#N)cc1`, the GI50 with ACHN renal was 1.22 µM; in the assay with DU-145 prostate, 2.18 µM; in the assay with HCT-15 colon, 0.584 µM; in the assay on LOX IMVI melanoma, 0.189 µM; with MDA-MB-231 breast, 0.519 µM; with SK-MEL-28 melanoma, 4.78 µM. For the same compound, the GI50 with SK-MEL-5 melanoma was 0.219 µM; in the assay on UACC-62 melanoma it was 0.379 µM. The TGI is above 100 µM in the assay with ACHN renal; above 100 µM in the assay on DU-145 prostate; above 66.6 µM with HCT-15 colon; 0.791 µM in the assay on LOX IMVI melanoma; above 20.8 µM in the assay with MDA-MB-231 breast; above 63.5 µM with SK-MEL-28 melanoma. For the same compound, the values for the concentration for total growth inhibition (TGI) in the assay on SK-MEL-5 melanoma and in the assay with UACC-62 melanoma were 0.845 µM and 2.55 µM, respectively.
As for `ClCc1cccc(Cn2cnc3ncnc(Cl)c32)c1`, the GI50 is 1.88 µM with ACHN renal; 15.2 µM in the assay on DU-145 prostate; 1.96 µM with HCT-15 colon; 3.11 µM with LOX IMVI melanoma; 1.72 µM with MDA-MB-231 breast; 1.81 µM with SK-MEL-28 melanoma. In addition, the GI50 was 4.65 µM with SK-MEL-5 melanoma and 2.16 µM in the assay with UACC-62 melanoma. For the same compound, the TGI in the assay with ACHN renal is 3.53 µM; with DU-145 prostate, 31 µM; in the assay on HCT-15 colon it was 4.34 µM; with LOX IMVI melanoma, 14 µM; in the assay on MDA-MB-231 breast, 3.4 µM; in the assay on SK-MEL-28 melanoma, 3.52 µM. The values for the TGI in the assay with SK-MEL-5 melanoma and with UACC-62 melanoma were 18.2 µM and 5.39 µM, respectively.
For the compound `O=S(=O)(CCn1c(Sc2ccccc2)c(Sc2ccccc2)c2ccccc21)c1ccccc1`, the TGI in the assay with ACHN renal, in the assay on DU-145 prostate, with HCT-15 colon, with LOX IMVI melanoma, in the assay on MDA-MB-231 breast and in the assay with SK-MEL-28 melanoma was above 100 µM in each case. For the same compound, the total growth inhibition concentration (TGI) with SK-MEL-5 melanoma and in the assay with UACC-62 melanoma was above 100 µM each time.
For `COc1ccc(-c2nnc(COc3ccc(C(=O)/C=C/c4ccco4)cc3)o2)cc1`, the GI50 was 2.12 µM with ACHN renal; 2.33 µM in the assay with DU-145 prostate; 1.8 µM with HCT-15 colon; 1.71 µM in the assay with LOX IMVI melanoma; 2.99 µM with MDA-MB-231 breast; 2.33 µM with SK-MEL-28 melanoma. In addition, the GI50 was 3.16 µM in the assay on SK-MEL-5 melanoma and 3.14 µM in the assay on UACC-62 melanoma. In addition, the concentration for total growth inhibition (TGI) came to 5.03 µM in the assay on ACHN renal; 5.72 µM with DU-145 prostate; 4.25 µM in the assay on HCT-15 colon; 3.18 µM with LOX IMVI melanoma; 10.4 µM in the assay on MDA-MB-231 breast; 5.41 µM in the assay on SK-MEL-28 melanoma. Also, the results for the TGI in the assay on SK-MEL-5 melanoma and in the assay with UACC-62 melanoma were 11.1 µM and 11.2 µM, respectively.
Consider `Fc1cc2[nH]ncc2c2c3c(c(-c4cn[nH]c4)nc12)CCCC3`, for which the GI50 was 0.327 µM in the assay on ACHN renal; 1.09 µM with DU-145 prostate; 0.56 µM in the assay on HCT-15 colon; 0.486 µM with LOX IMVI melanoma; 1.5 µM in the assay with MDA-MB-231 breast; 1.19 µM in the assay with SK-MEL-28 melanoma. Moreover, the GI50 is 0.552 µM with SK-MEL-5 melanoma and 0.632 µM with UACC-62 melanoma. Besides, the TGI in the assay with ACHN renal is 10.3 µM; in the assay on DU-145 prostate, 15.5 µM; with HCT-15 colon it was above 61.5 µM; in the assay on LOX IMVI melanoma, 2.4 µM; with MDA-MB-231 breast, 5.24 µM; in the assay with SK-MEL-28 melanoma, 3.88 µM. The concentration for total growth inhibition (TGI) in the assay on SK-MEL-5 melanoma is 2.12 µM; in the assay on UACC-62 melanoma it was 2.31 µM.
Turning to `C=C1C(=O)O[C@H]2[C@H]1CC/C(COC(=O)c1c[nH]c3ccccc13)=C\CC[C@@]1(C)O[C@@H]21`, the GI50 with ACHN renal was 0.215 µM; with DU-145 prostate, 0.383 µM; in the assay on HCT-15 colon, 0.258 µM; in the assay on LOX IMVI melanoma, 0.0471 µM; in the assay with MDA-MB-231 breast, 0.197 µM; in the assay with SK-MEL-28 melanoma it was 0.367 µM. The GI50 in the assay on SK-MEL-5 melanoma is 0.204 µM; in the assay on UACC-62 melanoma, 0.185 µM. Further, the TGI with ACHN renal was found to be 0.592 µM; with DU-145 prostate, 1.4 µM; in the assay with HCT-15 colon, 0.773 µM; in the assay on LOX IMVI melanoma it was 0.312 µM; with MDA-MB-231 breast, 0.447 µM; in the assay with SK-MEL-28 melanoma, 1.41 µM. Also, the TGI with SK-MEL-5 melanoma was 0.499 µM; in the assay with UACC-62 melanoma, 0.388 µM.
`COC(=O)C1=C(C)NC(C)=C(C(=O)OCCCN2CCC(c3ccccc3)(c3ccccc3)CC2)C1c1cccc([N+](=O)[O-])c1` (centres undefined): the TGI was 3.05 µM in the assay with ACHN renal; 3.31 µM in the assay with DU-145 prostate; 3.19 µM with HCT-15 colon; 3.2 µM with LOX IMVI melanoma; 2.65 µM in the assay on MDA-MB-231 breast; 3.39 µM in the assay with SK-MEL-28 melanoma. The results for the TGI with SK-MEL-5 melanoma and in the assay with UACC-62 melanoma were 3.16 µM and 3.24 µM, respectively.
Take `OCC#Cc1ccccc1C#Cc1ccccc1`: the GI50 in the assay on ACHN renal was 14.9 µM; in the assay with DU-145 prostate, 14.9 µM; in the assay on HCT-15 colon, 11.5 µM; with LOX IMVI melanoma, 13.2 µM; in the assay with MDA-MB-231 breast it was 3.26 µM; in the assay with SK-MEL-28 melanoma, 19.2 µM. For the same compound, the GI50 was 15.9 µM with SK-MEL-5 melanoma and 14.8 µM in the assay on UACC-62 melanoma. For the same compound, the TGI with ACHN renal amounted to 28.1 µM; with DU-145 prostate, 28.2 µM; with HCT-15 colon, 24.8 µM; with LOX IMVI melanoma, 27.6 µM; in the assay with MDA-MB-231 breast it was 16.4 µM; with SK-MEL-28 melanoma it was 40.4 µM. Moreover, the TGI with SK-MEL-5 melanoma stood at 31.8 µM; in the assay with UACC-62 melanoma, 27.9 µM.

As usually defined, the GI50 is the concentration giving 50% growth inhibition. By TGI is commonly meant the concentration at which net growth stops.
